# Test results reported in patent US11220548B2, “Treatment of C1013G/CXCR4-associated Waldenstrom's macroglobulinemia with an anti-CXCR4 antibody” (BRISTOL-MYERS SQUIBB COMPANY, priority 2013, dated 2022).
# Experiments:
# Type in all cases: cell-based, human
# [1] = test system: WM cell lines (BCWM.1; MWCL.1); test: Transwell migration assay of WM cell lines; conditions: increasing concentrations, 5 h
# Method: FIGS. 14A and 14B: FIGS. 14A and 14B show the effect of BMS-936564 on migration of WM cells in vitro. WM cell lines (BCWM.1; MWCL.1) were tested for their migratory properties using a transwell migration assay. Cells were exposed to increasing concentrations of BMS-936564 and migration was determined after 5 h. The transwell migration assay was performed in presence of either primary WM BM-MSCs (FIG. 14A) or in presence of SDF-1α (FIG. 14B). In both cases, BMS-936564-dependent inhibition of WM cell migration was observed.
# [2] = test system: WM cell lines (MWCL.1; BCWM.1); test: [3H]-thymidine uptake proliferation assay in presence of primary WM BM-MSCs; conditions: 48 h
# Method: FIGS. 15A-15C: FIGS. 15A-15C show the effect of BMS-936564 on adhesion and proliferation of WM cells in vitro. WM cell lines were treated with BMS-936564 for 4 h and subsequently tested for adhesion to primary WM BM-MSCs. […] WM cell lines, MWCL.1 (FIG. 15B) and BCWN.1 (FIG. 15C) were cultured with control media and with BMS-936564 for 48 h in the presence or absence of primary WM BMMSCs. Cell proliferation was assessed using a [^3H]-thymidine uptake assay. Bars indicate standard deviations. P indicates P value. All data represent mean (±sd) of triplicate experiments. The CXCR4 antagonist, […] (Sigma-Aldrich, St. Louis, Mo.), was used as control.
# BCWM.1 cells [3] = test: Western blot of survival signaling in WM cells; conditions: 6 h, cultured in the context of BM-MSCs, increasing concentrations
# Method: BCWM.1 cells were exposed to BMS-936564 for 6 h in presence or absence of primary WM BM-MSCs. The BCWM.1 cells were then harvested and cell lysates were subjected to western blot analysis using anti-phospho(p)-ERK1/2, anti-ERK1/2, anti-p-Akt, anti-Akt, anti-p-SRC, and anti-SRC antibodies. BCWM.1 cells cultured in the absence of WM BM-MSCs were used as control. Bars indicate standard deviation.
# (§1) Protein lysates were obtained from WM cells by homogenization under nondenaturing conditions in lysis buffer (Cell Signaling Technology, Beverly, Mass.) supplemented with 5 mM NaF, 2 mM Na3VO4, 1 mM PMSF ([…]), 5 μg/mL leupeptine, and 5 μg/mL aprotinin. Whole-cell lysates were subjected to sodium dodecyl sulfate-polyacrylamide gel electrophoresis (SDS-PAGE) and transferred to polyvinylidene difluoride (PVDF) membrane (Bio-Rad Laboratories, Hercules, Calif.). The antibodies used for immunoblotting included: anti-phospho(p)-ERK, anti-ERK, anti-p-Akt, anti-Akt, anti-p-Src, anti-Src, anti-caspase-9, anti-PARP, anti-p-β-catenin, anti-β-catenin, anti-p-GSK3, anti-GAPDH and anti-α-tubulin antibodies (Cell Signaling, Danvers, Mass.).
# To dissect the possible role of BMS-936564 in affecting WM signaling, WM cells were cultured in the absence or presence of primary WM BM-MSCs, with increasing concentrations of the anti-CXCR4 antibody.
# BCWM.1 cells [4] = test: Western blot of apoptosis-related proteins in WM cells; conditions: 14 h
# Method: FIGS. 18A and 18B: FIGS. 18A and 18B show the effect of BMS-936564 on apoptosis-related proteins in WM cells. BCWM.1 cells were exposed to BMS-936564 for 14 h. Whole cell lysates were then harvested and subjected to western blot analysis using anti-caspase-9, anti-PARP and anti-tubulin antibodies (FIG. 18A), and anti-p-β catenin, anti-β-catenin, anti-p-GSK3β, and anti-tubulin antibodies (FIG. 18B).
# as §1
# [5] = test system: C1013G/CXCR4-infected BCWM.1 cells; test: Transwell migration assay of C1013G/CXCR4-infected cells; conditions: in the context of the BM microenvironment
# Method: (§2) FIGS. 21A-21D: FIGS. 21A-21D show BMS-936564 targets C1013G/CXCR4-mutated cells in WM cells in the context of BM. C1013G/CXCR4-infected BCWM.1 cells were tested for their migratory properties using a transwell migration assay. Cells were exposed to increasing concentrations of BMS-936564 and migration was determined after 5 h. The transwell migration assay was performed in presence of either primary WM BM-MSCs (FIG. 21A) or SDF-1α (FIG. 21B). In both cases, BMS-936564-dependent inhibition of WM cell migration was observed. C1013G/CXCR4-infected BCWM.1 cells were treated with BMS-936564/for 4 h and subsequently tested for adhesion to primary WM BM-MSCs. […] C1013G/CXCR4-infected BCWM.1 cells were cultured with control media and with BMS-936564 for 48 h in the presence or absence of primary WM BM-MSCs. Cell proliferation was assessed using [^3H]-thymidine uptake assay (FIG. 21D). Bars indicate standard deviations. P indicates P value. All data represent mean (±sd) of triplicate experiments. […].
# [6] = test system: C1013G/CXCR4-infected BCWM.1 cells; test: [3H]-thymidine uptake proliferation assay of C1013G/CXCR4-infected cells; conditions: in the context of the BM microenvironment, 48 h
# Method: as §2
substance,measurement,setting,value
"BMS-936564: fully human anti-CXCR4 monoclonal antibody; VH SEQ ID NO: 25, VL SEQ ID NO: 29",migration of WM cell lines towards SDF-1,[1],inhibit migration
same,migration of WM cell lines towards primary WM BM-MSCs,[1],inhibit migration
same,WM cell proliferation in presence of WM BM-MSCs,[2],inhibition
same,"p-Akt, p-ERK, and p-Src in WM cells",BCWM.1 cells [3],drug-dependent inhibition
same,caspase-9 and PARP cleavage,BCWM.1 cells [4],increase
same,"p-GSK3-β, p-β-catenin and β-catenin",BCWM.1 cells [4],"increased phospho(p)-GSK3-β, and p-β-catenin up-regulation, leading to β-catenin degradation"
same,targeting migration of CXCR4-mutated cells,[5],equally active
same,targeting proliferative properties of CXCR4-mutated cells,[6],equally active
